Experimental data from the CATMoS acute toxicity set (Mansouri et al. 2021).

Assay: rat acute oral toxicity
Conditions: in vivo

`CCCSC(=O)N(CCC)CCC` showed an LD50 of 1200 mg/kg.

In the case of `ClC(Cl)(Cl)Cl`, the LD50 is reported as 2350 mg/kg.

`CCCN(CCC)CCC` showed an LD50 of 72.5 mg/kg.

`CCOP(=S)(OCC)OC(Cl)C(Cl)(Cl)Cl` (stereo not drawn) gave an LD50 of 1.8 mg/kg.

Work on `O=C(O)C1C2CCC(O2)C1C(=O)O` (stereo not drawn) yielded an LD50 of 38 mg/kg.

In the case of `CCO[Si](CCCSC#N)(OCC)OCC`, the LD50 is reported as 986 mg/kg.

Compound `COC(=O)Nc1ccc(Cl)c(Cl)c1` has an LD50 of 522 mg/kg.

With `O=C(O)c1ccccc1` the LD50 was 1700 mg/kg.

With `O=C(Nc1ccc(Cl)c(Cl)c1)C1CC1` the LD50 was 215 mg/kg.

Work on `CCCC(C)(COC(N)=O)COC(N)=O` yielded an LD50 of 794 mg/kg.

With `CC(C)C(=O)c1ccccc1` the LD50 was 1950 mg/kg.

Work on `CO[Si](CCCNCCN)(OC)OC` yielded an LD50 of 1900 mg/kg.

Compound `C=CC(=O)OCCO` has an LD50 of 548 mg/kg.

`COCC(C)O` (stereo not drawn) showed an LD50 of 3740 mg/kg.

With `O=C(CCCN1CCC(O)(c2ccc(Cl)cc2)CC1)c1ccc(F)cc1` the LD50 was 128 mg/kg.

In the case of `CNc1ccccc1`, the LD50 is reported as 716 mg/kg.

In the case of `CCOCCO`, the LD50 is reported as 1520 mg/kg.

For `ClC=CCCl`, the LD50 was 110 mg/kg.

In the case of `CCCCCCCCC=CCCCCCCCC1=NCCN1CCO`, the LD50 is reported as 1000 mg/kg.

In the case of `ClC1(Cl)C2(Cl)C3(Cl)C4(Cl)C(Cl)(Cl)C5(Cl)C3(Cl)C1(Cl)C5(Cl)C24Cl` (stereo not drawn), the LD50 is reported as 235 mg/kg.

`NC(=O)c1ccccc1O` showed an LD50 of 980 mg/kg.

`O=C(OCCOCCOC(=O)c1ccccc1)c1ccccc1` showed an LD50 of 2830 mg/kg.

`CC1(C)[C@H](/C=C(\Cl)C(F)(F)F)[C@@H]1C(=O)O[C@H](C#N)c1cccc(Oc2ccccc2)c1` gave an LD50 of 114 mg/kg.

In the case of `CCC(=O)OCc1ccccc1`, the LD50 is reported as 3300 mg/kg.

`ClC1=C(Cl)C2(Cl)C3C4CC(C5OC45)C3C1(Cl)C2(Cl)Cl` (stereo not drawn) gave an LD50 of 3 mg/kg.

In the case of `CCCCC(C=O)CC` (stereo not drawn), the LD50 is reported as 2600 mg/kg.

Compound `O=P(Oc1ccccc1)(Oc1ccccc1)Oc1ccccc1` has an LD50 of 3500 mg/kg.

Work on `CCS(=O)CCSP(=O)(OC)OC` (stereo not drawn) yielded an LD50 of 48 mg/kg.

In the case of `C=CCn1c(=O)n(CC=C)c(=O)n(CC=C)c1=O`, the LD50 is reported as 707 mg/kg.

`CC#N` showed an LD50 of 2490 mg/kg.

With `CC(O)COC(C)CO` (stereo not drawn) the LD50 was 2280 mg/kg.

`Cc1ccc(N)cc1C` gave an LD50 of 810 mg/kg.

`Nc1c(Cl)c(F)nc(OCC(=O)O)c1Cl` gave an LD50 of 2400 mg/kg.

Work on `OCCOCCOCCOCCO` yielded an LD50 of 32700 mg/kg.

In the case of `CCC(C)(C)OC`, the LD50 is reported as 1600 mg/kg.

`COP(=S)(OC)Oc1nc(Cl)c(Cl)cc1Cl` showed an LD50 of 1500 mg/kg.

For `N#CC(Cl)Cl`, the LD50 was 330 mg/kg.

`Clc1ccc(Cl)cc1` showed an LD50 of 500 mg/kg.

Work on `CCC1CO1` (stereo not drawn) yielded an LD50 of 500 mg/kg.

With `CC1CCCCN1CCCOC(=O)c1ccc(Cl)c(Cl)c1` (stereo not drawn) the LD50 was 800 mg/kg.

With `C=CC(C)C#N` (stereo not drawn) the LD50 was 232 mg/kg.

For `O=C(O)c1c(Cl)ccc(Cl)c1Cl`, the LD50 was 650 mg/kg.

`CCC(C)=NO` gave an LD50 of 930 mg/kg.

`c1ccc(Nc2ccccc2)cc1` gave an LD50 of 1120 mg/kg.

Compound `CNS(=O)(=O)c1cc(OC)c(N)cc1OC` has an LD50 of 815 mg/kg.

`CN(C)C(=O)Nc1ccc(Cl)c(Cl)c1` showed an LD50 of 437 mg/kg.

Compound `O=C(Nc1ccc(Cl)c(Cl)c1)Nc1cc(Cl)ccc1Oc1ccc(Cl)cc1S(=O)(=O)O` has an LD50 of 476 mg/kg.

Compound `CC(C)(N)Cc1ccccc1` has an LD50 of 151 mg/kg.

In the case of `OCCCl`, the LD50 is reported as 58 mg/kg.

For `O=C(Cl)c1ccccc1`, the LD50 was 2460 mg/kg.

Compound `CCNCCO` has an LD50 of 1000 mg/kg.

`NC(=S)Nc1cccc2ccccc12` gave an LD50 of 3 mg/kg.

Compound `O=C(O)C(F)(OC(F)(F)C(F)(F)C(F)(F)F)C(F)(F)F` (stereo not drawn) has an LD50 of 1750 mg/kg.

For `C[C@@H]1Cc2c(Cl)cc(C(=O)N[C@@H](Cc3ccccc3)C(=O)O)c(O)c2C(=O)O1`, the LD50 was 20 mg/kg.

With `O=c1oc2ccccc2c(O)c1C1CC(c2ccc(-c3ccccc3)cc2)Cc2ccccc21` (stereo not drawn) the LD50 was 0.925 mg/kg.

Compound `OCC(F)(F)F` has an LD50 of 153 mg/kg.

Work on `CC1=CC(=O)NS(=O)(=O)O1` yielded an LD50 of 5440 mg/kg.

In the case of `Clc1ccc(C(c2ccc(Cl)cc2)C(Cl)(Cl)Cl)cc1`, the LD50 is reported as 87 mg/kg.

Compound `CC(O)CC(C)(C)O` (stereo not drawn) has an LD50 of 3700 mg/kg.

Compound `OCC1CO1` (stereo not drawn) has an LD50 of 420 mg/kg.

Compound `CCCCCC` has an LD50 of 25000 mg/kg.

`Nc1ccc(Sc2ccc(N)cc2)cc1` showed an LD50 of 900 mg/kg.

Compound `N=C(Nc1ccccc1)Nc1ccccc1` has an LD50 of 107 mg/kg.

In the case of `C=C(C)C(=O)OCCO`, the LD50 is reported as 5050 mg/kg.

`CC(C)CN` gave an LD50 of 224 mg/kg.

`N#CC(Br)(Br)C(N)=O` showed an LD50 of 178 mg/kg.

`C=C(C)C(=O)OCCN(C)C` showed an LD50 of 455 mg/kg.

Compound `CC1(C)C(C(=O)OC(C#N)c2cccc(Oc3ccccc3)c2)C1(C)C` (stereo not drawn) has an LD50 of 66.7 mg/kg.

`C=C(C)C(=O)OCCN=C=O` gave an LD50 of 670 mg/kg.

Work on `O=S1(=O)CCCC1` yielded an LD50 of 1970 mg/kg.

Compound `CC1=NNC(=O)N(/N=C/c2cccnc2)C1` has an LD50 of 5690 mg/kg.

`CCOC(=O)C(O)(c1ccc(Cl)cc1)c1ccc(Cl)cc1` showed an LD50 of 700 mg/kg.

With `CC=O` the LD50 was 661 mg/kg.

For `COCCOCCOCCO`, the LD50 was 11300 mg/kg.

For `C#CCN1CC(=O)N(COC(=O)[C@@H]2[C@@H](C=C(C)C)C2(C)C)C1=O`, the LD50 was 900 mg/kg.

`CCCCN(CC)C(=O)SCCC` gave an LD50 of 921 mg/kg.

Compound `COc1ccc(Cc2nccc3cc(OC)c(OC)cc23)cc1OC` has an LD50 of 325 mg/kg.

With `Clc1cc2c(c(Cl)c1Cl)Oc1cc(Cl)c(Cl)c(Cl)c1O2` the LD50 was 0.8 mg/kg.

`CCCC1CO1` (stereo not drawn) showed an LD50 of 1330 mg/kg.

With `CCOP(=S)(OCC)SCSP(=S)(OCC)OCC` the LD50 was 13 mg/kg.

`O=C=NCc1cccc(CN=C=O)c1` gave an LD50 of 3200 mg/kg.

Work on `CNC(=O)CSP(=O)(OC)OC` yielded an LD50 of 25 mg/kg.

Work on `NS(=O)(=O)Cc1noc2ccccc12` yielded an LD50 of 1990 mg/kg.

Compound `C=CCBr` has an LD50 of 120 mg/kg.

In the case of `NNC(=O)c1ccncc1`, the LD50 is reported as 650 mg/kg.

`CCCCCCCO` gave an LD50 of 500 mg/kg.

`CCC(C)NC1CCC(CC2CCC(NC(C)CC)CC2)CC1` (stereo not drawn) gave an LD50 of 266 mg/kg.

Work on `O=[N+]([O-])c1cccc(O)c1` yielded an LD50 of 328 mg/kg.
